This is an account of results in patent US11161824B2, “Heterocyclic lipoxin analogs and uses thereof” (University College Dublin, National University of Ireland, …, priority 2016, dated 2021).

The test system of one data set is Th1 cytokine release. Description: LPS-induced Th1 cytokine release from THP-1 LUCIA monocytes. In kind it is cell-based. Particulars: 10^-11, 10^-9 or 10^-7 M; 50 ng/ml LPS 24 h; IL1β, IL6, IL12p70, IFNγ, TNF-α as per figure. As for the experimental part:
FIG. 2A-2E are graphs showing imidazole-lipoxin analogues (1R)-9 and (1S)-9 reduce LPS-induced Th1 cytokine release. 1×10^5 THP-1 LUCIA monocytes were pre-treated for 30 min with […], 10^−9 M or 10^−7 M of LXA4 1 and imidazole-lipoxin analogues (1R)-9 and (1S)-9, vehicle or appropriate controls. After 24 h from stimulation with 50 ng/ml of LPS, supernatants were collected and […] (FIG. 2A), IL6 (FIG. 2B), IL12p70 (FIG. 2C), IFNγ (FIG. 2D), and TNF-α (FIG. 2E) levels were measured. Data are expressed as % cytokine secretion relative to LPS alone ±SEM (n=3), *=p<0.05, **=p<0.01, ***=p<0.001.
FIG. 6A-6C are graphs showing that quinoxaline-lipoxin analogue (1R)-CT-4-43 inhibits LPS-induced Th1 cytokine release. 1×10^5 THP-1 LUCIA monocytes were pre-treated for 30 min with […], 10^−9 M or 10^−7 M of LXA4 and quinoxaline-lipoxin analogue (1R)-CT-4-43, vehicle or appropriate controls. After 24 h from stimulation with 50 ng/ml of LPS, supernatants were collected and IL13 (FIG. 6A), IL6 (FIG. 6B), and IFNγ (FIG. 6C) levels were measured. Data are expressed as % cytokine secretion relative to LPS alone ±SEM (n=3), *=p<0.05, **=p<0.01, ***=p<0.001.
FIG. 9A-9C are graphs showing that the isoquinoline-lipoxin analogue RB3 inhibit LPS-induced Th1 cytokine release. 1×10^5 THP-1 LUCIA monocytes were pre-treated for 30 min with 10^−11 M, 10^−9 M or 10^−7 M of LXA4 and isoquinoline-lipoxin analogue (1R)-RB3, vehicle or appropriate controls. After 24 h from stimulation with 50 ng/ml of LPS, supernatants were collected and IL1β(FIG. 9A), IL6 (FIG. 9B), and IL12p70 (FIG. 9C) levels were measured. Data are expressed as % cytokine secretion relative to LPS alone ±SEM (n=3), *=p<0.05, **=p<0.01, ***=p<0.001.

Data set [1] relates to NFkB. Description: LPS-induced NFkB-driven luciferase activity in THP-1 LUCIA monocytes. Type of data set: cell-based. The conditions noted are these: for reduction of LPS-induced NFkB luciferase activity: 30 min pre-treatment, then 24 h with 50 ng/ml LPS, relative to LPS. The protocol: 1×10^5 THP-1 LUCIA monocytes were pre-treated for 30 min with native LXA4 1 (FIG. 1A), imidazole analogues 9 [(1R)-epimer (FIG. 1B) and (1S)-epimer (FIG. 1C)], vehicle or appropriate controls, at increasing doses ranging from 10^−12 M up to 10^−6 M. 10^8 HKLM was used as positive control for NFkB activation. After 24 h from stimulation with 50 ng/ml of LPS, supernatants were collected and NFkB-driven luciferase was measured. (d) Data are expressed as % Relative Luminescence Unit relative to LPS alone ±SEM (n=3), *=p<0.05, **=p<0.01, ***=p<0.001. Graphs display the statistical analysis of the tested compound vs LPS.
(§1) The experiments were based around a model which utilised 1×10^5/ml THP-1 monocytes stably expressing NFkB luciferase reporter gene (LUCIA).
(§2) Anti-inflammatory activity was assessed by testing 10 analogues (6 quinoxalines & 4 isoquinolines) in presence & absence of lipopolysaccharide (LPS). For each analogue, a dose-response from 10^−12 M up to 10^−6 M was performed. The vehicle control corresponded to 0.1% Ethanol. NFkB activator, Heat-Killed Listeria Monocytogenes (HKLM) (10^7 cells/ml), were used as positive control for luciferase induction. 10^−6 M Dexamethasone (Dex) was used as positive control for luciferase inhibition. […] Benzo-lipoxin A4 (BLX) was used as positive control for LXA4 analogues.
A 2-tailed, assuming unequal variance T-test analysis was performed on three independent experiments for each assay. P-values were considered significant when p<0.05. If p<0.05, then * or $; if p<0.01, then ** or $$ or ##; if p<0.001, then *** or $$$ or ###.
Cells were seeded in 96-well plates and pre-treated with increasing doses of LXA4, analogues or controls for 30 min, followed by 24 h of co-incubation with 50 ng/ml LPS. […] (*=statistical analysis vs LPS; $=statistical analysis vs LXA4)

The subject of data set [2] is carrageenan-induced paw swelling. The data set can be described thus: Murine carrageenan-induced paw swelling. In kind it is in vivo, C57Bl/6 mice. Particulars: 45 ng/mouse i.p. 30 mins before intrapaw 1% carrageenan; 4-72 h. As for the experimental part:
CT4-43 attenuates carageenan-induced paw swelling—Mice [male C57Bl/6] were administered vehicle [0.01% EtOH] or CT4-4 [45 ng/mouse i.p] 30 mins before intrapaw injection of 1% carageenan. Paw swelling was monitored over time [4-72 h] using an external lever gauge [Kroeplin]. Data are presented as mean+/−SEM, n=3 mice/treatment group.

The test system of data set [3] is NFkB. The data set can be described thus: NFkB-driven luciferase activity in resting conditions (absence of LPS) in THP-1 LUCIA monocytes. Particulars: 10^-12 M to 10^-6 M, 24 h. In kind it is cell-based. As for the experimental part: 1×10^5 THP-1 LUCIA monocytes were treated for 30 min with native (a) LXA4 1, its stable imidazole-lipoxin analogues (1R)-9 and (1S)-9, vehicle or appropriate controls, at increasing doses ranging from 10^−12 M up to 10^−6 M. After 24 h, supernatants were collected and NFkB-driven luciferase was measured. Data are expressed as % Relative Luminescence Unit relative to LPS alone ±SEM (n=3).
as §1, §2

A further data set has as its system THP-1 monocytes. The protocol:
Cytotoxicity Prior to functional assay testing, all compounds were screened for any cytotoxic effect, in the presence & absence of LPS, measuring the level of lactate dehydrogenase (LDH) released at A490nm.
The cells were treated as described above and, after 24 h, supernatant was collected and LDH activity assayed.

For the compound `CCCCC[C@@H](O)c1nc2ccccc2nc1/C=C/[C@@H](O)[C@@H](O)CCCC(=O)OC` [(1R)-CT4-43, Methyl (5S,6R,E)-5,6-dihydroxy-8-(3-((R)-1-hydroxyhexyl)quinoxalin-2-yl)oct-7-enoate], the “effect on LPS-induced Th1 cytokine release (in words)” value in the data set with Th1 cytokine release was “inhibits”. Also, the “reduction of LPS-induced NFkB luciferase activity” value is on record as 38.2±8.2% in the data set on NFkB [1] (1 nM) and 34.8±4.2% with NFkB [1] (10 nM). Also, in the data set on NFkB [1] (doses 10^-12 M to 10^-6 M, 50 ng/ml LPS, 24 h), the “effect on LPS-induced NFkB-driven luciferase activity (in words)” value is “attenuating”. Also, in the data set with NFkB [1] (versus LXA4 or other analogues), the “potency in reducing LPS-induced NFkB activity, comparison in words” value was “significantly more potent than LXA4”. Moreover, the “effect on carrageenan-induced paw swelling (in words)” value in data set [2] was “attenuates”. In the data set on NFkB [3], the “NFkB-driven luciferase activity in resting conditions (in words)” value is “does not elicit”.

For `CCCCC[C@@H](O)c1ccccc1/C=C/[C@@H](O)[C@@H](O)CCCC(=O)OC` [Blx], in the data set on THP-1 monocytes, the “effect on LPS-induced LDH activity (cytotoxicity, in words)” value was “significantly (p<0.001) decreased”.
